Measurements reported in ChEMBL document CHEMBL1201862, “PubChem BioAssay data set” (2004).
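The compound was tested at five concentrations on cells cultured in 96-well plates, with a 48-hour exposure period. At the GI50, growth is halved.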 Calls of active or inactive are those of the source. Rule as the data show it: active = GI50 up to about 1.1 µM and inactive = higher.

What was measured:
Experiment in all cases: inhibition of tumour cell growth, NCI panel, 48 h
786-0 = test system: 786-0
A498 = test system: A498
A549 = test system: A549
CAKI-1 = test system: CAKI-1
CCRF-CEM = test system: CCRF-CEM
COLO 205 = test system: COLO 205
DLD-1 = test system: DLD-1
DMS-114 = test system: DMS-114
DMS-273 = test system: DMS-273
EKVX = test system: EKVX
HCC 2998 = test system: HCC 2998
HCT-116 = test system: HCT-116
HL-60 = test system: HL-60
HOP-18 = test system: HOP-18
HOP-62 = test system: HOP-62
IGROV-1 = test system: IGROV-1
K562 = test system: K562
KM-20L2 = test system: KM-20L2
KM12 = test system: KM12
LOX IMVI = test system: LOX IMVI
LXFL 529 = test system: LXFL 529
M14 = test system: M14
M19-MEL = test system: M19-MEL
MOLT-4 = test system: MOLT-4
Malme-3M = test system: Malme-3M
NCI-H226 = test system: NCI-H226
NCI-H23 = test system: NCI-H23
NCI-H460 = test system: NCI-H460
NCI-H522 = test system: NCI-H522
OVCAR-3 = test system: OVCAR-3
OVCAR-4 = test system: OVCAR-4
OVCAR-5 = test system: OVCAR-5
OVCAR-8 = test system: OVCAR-8
RPMI-8226 = test system: RPMI-8226
RXF 393 = test system: RXF 393
SF-268 = test system: SF-268
SF-295 = test system: SF-295
SF-539 = test system: SF-539
SK-MEL-28 = test system: SK-MEL-28
SK-MEL-2 = test system: SK-MEL-2
SK-MEL-5 = test system: SK-MEL-5
SK-OV-3 = test system: SK-OV-3
SN12C = test system: SN12C
SNB-19 = test system: SNB-19
SNB-75 = test system: SNB-75
SNB-78 = test system: SNB-78
SW-620 = test system: SW-620
TK-10 = test system: TK-10
U-251 = test system: U-251
UACC-257 = test system: UACC-257
UACC-62 = test system: UACC-62
UO-31 = test system: UO-31
XF498 = test system: XF498
ACHN = test system: ACHN
HCT-15 = test system: HCT-15
HOP-92 = test system: HOP-92
HT-29 = test system: HT-29
RXF 631 = test system: RXF 631
SR = test system: SR

CCOC(=O)C1=C(Nc2ccc(Cl)c(Cl)c2)OC/C1=N\NC(=O)Cc1ccccc1
GI50 (786-0): > 100 µM (inactive)
GI50 (A498): > 100 µM (inactive)
GI50 (A549): > 100 µM (inactive)
GI50 (CAKI-1): > 100 µM (inactive)
GI50 (CCRF-CEM): > 100 µM (inactive)
GI50 (COLO 205): > 100 µM (inactive)
GI50 (DLD-1): > 100 µM (inactive)
GI50 (DMS-114): > 100 µM (inactive)
GI50 (DMS-273): > 100 µM (inactive)
GI50 (EKVX): > 100 µM (inactive)
GI50 (HCC 2998): > 100 µM (inactive)
GI50 (HCT-116): 99.8 µM (inactive)
GI50 (HL-60): > 100 µM (inactive)
GI50 (HOP-18): 87.7 µM (inactive)
GI50 (HOP-62): > 100 µM (inactive)
GI50 (IGROV-1): > 100 µM (inactive)
GI50 (K562): 89.1 µM (inactive)
GI50 (KM-20L2): > 100 µM (inactive)
GI50 (KM12): > 100 µM (inactive)
GI50 (LOX IMVI): > 100 µM (inactive)
GI50 (LXFL 529): > 100 µM (inactive)
GI50 (M14): > 100 µM (inactive)
GI50 (M19-MEL): > 100 µM (inactive)
GI50 (MOLT-4): 61.1 µM (inactive)
GI50 (Malme-3M): > 100 µM (inactive)
GI50 (NCI-H226): > 100 µM (inactive)
GI50 (NCI-H23): > 100 µM (inactive)
GI50 (NCI-H460): > 100 µM (inactive)
GI50 (NCI-H522): > 100 µM (inactive)
GI50 (OVCAR-3): > 100 µM (inactive)
GI50 (OVCAR-4): > 100 µM (inactive)
GI50 (OVCAR-5): > 100 µM (inactive)
GI50 (OVCAR-8): > 100 µM (inactive)
GI50 (RPMI-8226): 68.7 µM (inactive)
GI50 (RXF 393): > 100 µM (inactive)
GI50 (SF-268): > 100 µM (inactive)
GI50 (SF-295): > 100 µM (inactive)
GI50 (SF-539): > 100 µM (inactive)
GI50 (SK-MEL-28): > 100 µM (inactive)
GI50 (SK-MEL-2): > 100 µM (inactive)
GI50 (SK-MEL-5): > 100 µM (inactive)
GI50 (SK-OV-3): > 100 µM (inactive)
GI50 (SN12C): > 100 µM (inactive)
GI50 (SNB-19): > 100 µM (inactive)
GI50 (SNB-75): > 100 µM (inactive)
GI50 (SNB-78): > 100 µM (inactive)
GI50 (SW-620): > 100 µM (inactive)
GI50 (TK-10): > 100 µM (inactive)
GI50 (U-251): > 100 µM (inactive)
GI50 (UACC-257): 63.7 µM (inactive)
GI50 (UACC-62): > 100 µM (inactive)
GI50 (UO-31): 56.2 µM (inactive)
GI50 (XF498): > 100 µM (inactive)

CCCCCCCCCCCCCCCCCC(=O)O[C@H](COC(=O)CCCCCCCCCCC)COC(=O)CCCCCCCCCCCCCCC
GI50 (786-0): > 100 µM (inactive)
GI50 (A498): > 100 µM (inactive)
GI50 (A549): > 100 µM (inactive)
GI50 (ACHN): > 100 µM (inactive)
GI50 (CAKI-1): > 100 µM (inactive)
GI50 (CCRF-CEM): > 100 µM (inactive)
GI50 (COLO 205): > 100 µM (inactive)
GI50 (DLD-1): > 100 µM (inactive)
GI50 (DMS-114): > 100 µM (inactive)
GI50 (DMS-273): > 100 µM (inactive)
GI50 (HCC 2998): > 100 µM (inactive)
GI50 (HCT-116): > 100 µM (inactive)
GI50 (HCT-15): > 100 µM
GI50 (HL-60): > 100 µM (inactive)
GI50 (HOP-18): > 100 µM (inactive)
GI50 (HOP-62): > 100 µM (inactive)
GI50 (HOP-92): > 100 µM (inactive)
GI50 (HT-29): > 100 µM (inactive)
GI50 (IGROV-1): > 100 µM (inactive)
GI50 (K562): > 100 µM (inactive)
GI50 (KM-20L2): > 100 µM (inactive)
GI50 (LOX IMVI): > 100 µM (inactive)
GI50 (LXFL 529): > 100 µM (inactive)
GI50 (M14): > 100 µM (inactive)
GI50 (M19-MEL): > 100 µM (inactive)
GI50 (MOLT-4): > 100 µM (inactive)
GI50 (Malme-3M): > 100 µM (inactive)
GI50 (NCI-H226): > 100 µM (inactive)
GI50 (NCI-H23): > 100 µM (inactive)
GI50 (NCI-H460): > 100 µM (inactive)
GI50 (OVCAR-3): > 100 µM (inactive)
GI50 (OVCAR-4): > 100 µM (inactive)
GI50 (OVCAR-5): > 100 µM (inactive)
GI50 (OVCAR-8): > 100 µM (inactive)
GI50 (RPMI-8226): > 100 µM (inactive)
GI50 (RXF 631): > 100 µM (inactive)
GI50 (SF-268): > 100 µM (inactive)
GI50 (SF-295): > 100 µM (inactive)
GI50 (SK-MEL-28): > 100 µM (inactive)
GI50 (SK-MEL-5): > 100 µM (inactive)
GI50 (SK-OV-3): > 100 µM (inactive)
GI50 (SN12C): > 100 µM (inactive)
GI50 (SNB-19): > 100 µM (inactive)
GI50 (SR): > 100 µM (inactive)
GI50 (SW-620): > 100 µM (inactive)
GI50 (TK-10): > 100 µM (inactive)
GI50 (U-251): > 100 µM (inactive)
GI50 (UACC-257): > 100 µM (inactive)
GI50 (UACC-62): > 100 µM (inactive)
GI50 (UO-31): > 100 µM (inactive)
